Patent US20230078764A1 (Yumanity Therapeutics, Inc., priority 2019, published 2023)
Read-outs that look alike come from different tables or passages of the source.

Tests used:
human SCD1 = molecular target: T1, human SCD1 (Homo sapiens, UniProt O00767); assay: Growth inhibition of yeast strain expressing human SCD1 as sole desaturase (OLE1 deleted), OD600 readout; type: cell-based
T1 construct: expressed in transfected cells; host or cells: yeast strain with OLE1 deleted, plasmid-borne human SCD1 (selected in SD-Ura)
T1 sequence (O00767 1-359): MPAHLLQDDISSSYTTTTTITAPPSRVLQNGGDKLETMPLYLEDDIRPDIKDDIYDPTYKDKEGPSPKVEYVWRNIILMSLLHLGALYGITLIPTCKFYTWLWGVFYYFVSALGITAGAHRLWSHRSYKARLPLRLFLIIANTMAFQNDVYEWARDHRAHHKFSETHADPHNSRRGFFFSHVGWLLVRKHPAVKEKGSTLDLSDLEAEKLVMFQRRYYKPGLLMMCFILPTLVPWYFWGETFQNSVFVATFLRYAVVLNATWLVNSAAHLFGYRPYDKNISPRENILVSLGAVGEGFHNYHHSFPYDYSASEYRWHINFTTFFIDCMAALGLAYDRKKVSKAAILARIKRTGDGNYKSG

human SCD5 = molecular target: T2, human SCD5 (Homo sapiens, UniProt Q86SK9); assay: Growth inhibition of yeast strain expressing human SCD5 as sole desaturase (OLE1 deleted), OD600 readout; type: cell-based
T2 construct: expressed in transfected cells; host or cells: yeast strain with OLE1 deleted, plasmid-borne human SCD5 (selected in SD-Ura)
T2 sequence (Q86SK9 1-330): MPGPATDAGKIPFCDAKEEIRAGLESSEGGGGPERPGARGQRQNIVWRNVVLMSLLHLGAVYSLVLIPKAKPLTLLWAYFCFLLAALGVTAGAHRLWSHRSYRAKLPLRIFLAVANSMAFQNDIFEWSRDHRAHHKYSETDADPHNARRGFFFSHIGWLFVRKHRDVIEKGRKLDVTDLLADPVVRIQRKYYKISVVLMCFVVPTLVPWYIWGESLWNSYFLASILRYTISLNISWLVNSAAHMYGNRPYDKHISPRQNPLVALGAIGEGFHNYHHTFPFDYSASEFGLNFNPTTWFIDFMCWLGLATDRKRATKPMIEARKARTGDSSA

[1] = yeast strain expressing human SCD1 as sole desaturase, growth (OD600) after 40 h at 30° C., read-out: SCD1 IC50
[2] = yeast strain expressing human SCD5 as sole desaturase, growth (OD600) after 40 h at 30° C., read-out: SCD5 IC50

Row | Compound | IC50 (human SCD1; [1]) | IC50 (human SCD5; [2]) | IC50 (human SCD5; SCD5 IC50) | IC50 (human SCD1; SCD1 IC50)
1 | CN1N=C(C(=O)Nc2nc(Cl)c(Cc3cccc(F)c3)s2)CCC1=O [Compound 218, N-(4-chloro-5-(3-fluorobenzyl)thiazol-2-yl)-1-methyl-6-oxo-1,4,5,6-tetrahydropyridazine-3-carboxamide] | 2730 nM | 360 nM |  | 
2 | Cc1nc(NC(=O)C2=NN(C)C(=O)CC2)sc1Cc1cccc(F)c1 [Compound 219, N-(5-(3-fluorobenzyl)-4-methylthiazol-2-yl)-1-methyl-6-oxo-1,4,5,6-tetrahydropyridazine-3-carboxamide] | 1580 nM | 1350 nM |  | 
3 | CN1N=C(C(=O)Nc2ncc(Cc3cccc(F)c3)s2)CCC1=O [Compound 220] | 660 nM | 520 nM |  | 
4 | CN1N=C(C(=O)N(C)c2ncc(Cc3cccc(F)c3)s2)CCC1=O [Compound 221] | > 45000 nM | > 45000 nM |  | 
5 | CC(C)N1N=C(C(=O)Nc2ncc(Cc3cccc(Cl)c3)s2)CCC1=O [Compound 222, N-(5-(3-Chlorobenzyl)thiazol-2-yl)-1-isopropyl-6-oxo-1,4,5,6-tetrahydropyridazine-3-carboxamide] | 7450 nM | 2510 nM |  | 
6 | CN1CC(C(=O)Nc2ncc(Cc3cccc(F)c3)s2)CCC1=O (centres unmarked) [Compound 223, N-(5-(3-fluorobenzyl)thiazol-2-yl)-1-methyl-6-oxopiperidine-3-carboxamide] | > 45000 nM |  | 11300 nM | 
7 | Cn1cc(C(=O)Nc2ncc(Cc3cccc(F)c3)s2)ccc1=O [Compound 224, N-(5-(3-fluorobenzyl)thiazol-2-yl)-1-methyl-6-oxo-1,6-dihydropyridine-3-carboxamide] |  |  | 220 nM | 310 nM
8 | O=C(Nc1ncc(Cc2cccc(Cl)c2)s1)c1ccc(=O)n(C2COC2)n1 [Compound 225, N-(5-(3-chlorobenzyl)thiazol-2-yl)-1-(oxetan-3-yl)-6-oxo-1,6-dihydropyridazine-3-carboxamide] | 2070 nM | 1960 nM |  | 
9 | O=C(Nc1ncc(Cc2cccc(F)c2)s1)c1ccc(=O)n(CCF)n1 [Compound 226, N-(5-(3-fluorobenzyl)thiazol-2-yl)-1-(2-fluoroethyl)-6-oxo-1,6-dihydropyridazine-3-carboxamide] | 7270 nM | 5710 nM |  | 
10 | CCn1nc(C(=O)Nc2ncc(Cc3cccc(F)c3)s2)ccc1=O [Compound 227, 1-ethyl-N-(5-(3-fluorobenzyl)thiazol-2-yl)-6-oxo-1,6-dihydropyridazine-3-carboxamide] | 440 nM | 360 nM |  | 
11 | CN1N=C(C(=O)Nc2ncc(Cc3cc(F)cc(F)c3)s2)CCC1=O [Compound 229, N-(5-(3,5-difluorobenzyl)thiazol-2-yl)-1-methyl-6-oxo-1,4,5,6-tetrahydropyridazine-3-carboxamide] | 140 nM | 110 nM |  | 
12 | CN1N=C(C(=O)Nc2ncc(Cc3ccccc3Cl)s2)CCC1=O [Compound 230, N-(5-(2-chlorobenzyl)thiazol-2-yl)-1-methyl-6-oxo-1,4,5,6-tetrahydropyridazine-3-carboxamide] | 2880 nM | 3800 nM |  | 
13 | CN1N=C(C(=O)Nc2ncc(Cc3cncc(Cl)c3)s2)CCC1=O [Compound 231, N-(5-((5-chloropyridin-3-yl)methyl)thiazol-2-yl)-1-methyl-6-oxo-1,4,5,6-tetrahydropyridazine-3-carboxamide] | 8930 nM | 3170 nM |  | 
14 | Cn1nc(C(=O)Nc2nc(Cl)c(Cc3cccc(F)c3)s2)ccc1=O [Compound 232, N-(4-chloro-5-(3-fluorobenzyl)thiazol-2-yl)-1-methyl-6-oxo-1,6-dihydropyridazine-3-carboxamide] | 140 nM | 70 nM |  | 
15 | Cn1nc(C(=O)Nc2nc(C#N)c(Cc3cccc(F)c3)s2)ccc1=O [Compound 233, N-(4-cyano-5-(3-fluorobenzyl)thiazol-2-yl)-1-methyl-6-oxo-1,6-dihydropyridazine-3-carboxamide] | 1630 nM | 870 nM |  | 
16 | CN1N=C(C(=O)Nc2ncc(Cc3ccc(F)cc3F)s2)CCC1=O [Compound 234, N-(5-(2,4-difluorobenzyl)thiazol-2-yl)-1-methyl-6-oxo-1,4,5,6-tetrahydropyridazine-3-carboxamide] | 6300 nM | 1440 nM |  | 
17 | CN1N=C(C(=O)Nc2ncc(Cc3cc(F)ccc3F)s2)CCC1=O [Compound 235, N-(5-(2,5-difluorobenzyl)thiazol-2-yl)-1-methyl-6-oxo-1,4,5,6-tetrahydropyridazine-3-carboxamide] | 1880 nM | 1770 nM |  | 
18 | CN1N=C(C(=O)Nc2ncc(N(C)c3cccc(F)c3)s2)CCC1=O [Compound 237, N-(5-((3-fluorophenyl)(methyl)amino)thiazol-2-yl)-1-methyl-6-oxo-1,4,5,6-tetrahydropyridazine-3-carboxamide] | 7210 nM | 3200 nM |  | 
19 | Cc1cc(C(=O)Nc2ccc(Cc3cccc(F)c3)cn2)nc(C)n1 [Compound 239] | 250 nM | 10 nM |  | 
20 | Cc1ccc(C(=O)Nc2ccc(Cc3ccc(F)c(F)c3)cn2)nn1 [Compound 241] | 2030 nM | 70 nM |  | 
21 | Cc1nccc(C(=O)Nc2ccc(Cc3cc(F)cc(F)c3)cn2)n1 [Compound 242] | 50 nM | 10 nM |  | 
22 | Cc1nccc(C(=O)Nc2ccc(Cc3ccc(F)c(Cl)c3)cn2)n1 [Compound 244] | 10 nM | 10 nM |  | 
23 | CN1N=C(C(=O)Nc2ncc(Cc3cccc(F)c3)nn2)CCC1=O [Compound 245] | > 45000 nM | > 45000 nM |  | 
24 | Cn1cc(C(=O)Nc2ccc(Cc3ccc(F)cc3)cn2)ccc1=O [Compound 248] | 200 nM | 10 nM |  | 
25 | O=C(Nc1ccc(Cc2cccc(Cl)c2)cn1)N1CCn2nccc2C1 [Compound 249] | > 45000 nM | 6750 nM |  | 
26 | O=C(Nc1ccc(Cc2cccc(Cl)c2)cn1)N1CC2(COC2)C1 [Compound 250] | > 45000 nM | 9750 nM |  | 
27 | Cc1cc(C(=O)Nc2ccc(Cc3cccc(F)c3)cn2)nn(C)c1=O [Compound 251] | > 45000 nM | 150 nM |  | 
28 | Cc1cnc(C(=O)Nc2ccc(Cc3cccc(F)c3)cn2)cn1 [Compound 252] | 690 nM | 130 nM |  | 

The next lines start with results.

Row | IC50 (human SCD1; [1]) | IC50 (human SCD5; [2]) | Compound | IC50 (human SCD5; SCD5 IC50) | IC50 (human SCD1; SCD1 IC50)
29 | 10 nM | 10 nM | Cn1nc(C(=O)Nc2ncc(Cc3cccc(Cl)c3)s2)ccc1=O [Compound 236, N-(5-(3-chlorobenzyl)thiazol-2-yl)-1-methyl-6-oxo-1,6-dihydropyridazine-3-carboxamide] |  | 
30 | 4060 nM | 3960 nM | O=C(Nc1ccc(Cc2cccc(F)c2)nn1)c1ccc2nccn2n1 [Compound 238] |  | 
31 | 4390 nM | 310 nM | Cn1ccc(C(=O)Nc2ccc(Cc3cccc(F)c3)cn2)cc1=O [Compound 240] |  | 
32 | 60 nM | 10 nM | Cc1ccc(C(=O)Nc2ccc(Cc3cccc(Cl)c3)cn2)nn1 [Compound 243] |  | 
33 | 6450 nM | 1590 nM | CN1N=C(C(=O)Nc2ccc(CCc3cccc(Cl)c3)nn2)CCC1=O [Compound 246] |  | 
34 | > 45000 nM | 2020 nM | CN1N=C(C(=O)Nc2ccc(Cc3ccc(Cl)s3)nn2)CCC1=O [Compound 247] |  | 
35 | > 45000 nM | 3530 nM | Cn1nc(NC(=O)c2ccc(Cc3cccc(Cl)c3)nn2)ccc1=O [Compound 254] |  | 
36 | 750 nM | 40 nM | O=C(Nc1ccc(Cc2cccc(Cl)c2)cn1)c1ccc(=O)n(C2CC2)n1 [Compound 256] |  | 
37 | > 45000 nM | 4360 nM | CCCn1nc(C(=O)Nc2ccc(Cc3cccc(Cl)c3)nn2)ccc1=O [Compound 257] |  | 
38 | 3860 nM | 180 nM | O=C(Nc1ccc(Cc2cccc(F)c2)cn1)c1ccc(=O)n(C2CC2)c1 [Compound 258] |  | 
39 | 5370 nM | 570 nM | Cn1cc(C(=O)Nc2ccc(COc3cccc(Cl)c3)nn2)ccc1=O [Compound 259] |  | 
40 | 4580 nM | 170 nM | CN1N=C(C(=O)Nc2ccc(COc3cccc(F)c3)cn2)CCC1=O [Compound 260] |  | 
41 | 1420 nM | 50 nM | CN1N=C(C(=O)Nc2ccc(COc3cccc(Cl)c3)cn2)CCC1=O [Compound 261] |  | 
42 | 3980 nM | 260 nM | Cn1nc(C(=O)Nc2ccc(COc3cccc(Cl)c3)cn2)ccc1=O [Compound 262] |  | 
43 | > 45000 nM | 8840 nM | CCn1cc(C(=O)Nc2ccc(COc3cccc(Cl)c3)cn2)ccc1=O [Compound 264] |  | 
44 | 23300 nM | 350 nM | CN1N=C(C(=O)Nc2ccc(COc3ccc(F)c(Cl)c3)cn2)CCC1=O [Compound 265] |  | 
45 | 1850 nM | 400 nM | Cn1cc(C(=O)Nc2ccc(COc3ccc(F)c(Cl)c3)cn2)ccc1=O [Compound 266] |  | 
46 | > 45000 nM | 10600 nM | Cn1cc(C(=O)Nc2ccc(Cc3cc(F)c(F)c(F)c3)nn2)ccc1=O [Compound 267] |  | 
